According to US20220079889A1, “USE OF CANNABANOIDS IN THE TREATMENT OF PROLIFERATIVE DIABETIC RETINOPATHY” (VERDANT PHARMACEUTICALS, LLC, priority 2020, published 2022):
Entries after “also recorded” stand apart in the source; their conditions may differ.

Assays:
[1] = system: ED-1-positive cells in the CNV lesions; assay: Quantification of macrophage infiltration into CNV lesions; format: in vivo, Brown-Norway rats
Description: (§1) To block CB, a specific CBD, Compound 11 described above, was used (R-tech Ueno, Ltd., Tokyo, Japan). After laser injury, the inhibitor (0.3 mg/kg BW) was administered to the animals by daily i.p. injections. As a control, some animals received the same regimen for the vehicle solution alone.
At 1, 3, and 7 days after laser injury and treatment with either CBD or vehicle solution, animals were perfused with 200 ml of PBS/kg BW under deep anesthesia. Subsequently, eyes were enucleated and fixed overnight with 4% PFA, and 10 μm frozen sections of the posterior segment, including the center portion of CNV lesions (6 lesions per eye), were prepared and pre-blocked (PBS containing 10% goat serum, 0.5% gelatin, 3% BSA, and 0.2% Tween 20). […] The photographs of CNV lesions were taken, and the numbers of ED-1-positive cells were counted. To obtain a quantitative index of macrophage numbers in CNV lesions, an optical density plot of the selected area was generated by a histogram graphing tool in the Photoshop imageanalysis software (version 6.0: Adobe Systems, Mountain View, Calif.), as described in the literature (for example, Sakurai et al. (2003) IOVS 44: 3578-85). […]

CNV lesions = assay: Laser injury CNV model, CNV size in choroidal flat mounts; format: in vivo, Brown-Norway rats; details: rats
Text: For reverse transcription polymerase chain reaction (RT-PCR) detection and immunofluorescence staining of CB in the choroid, Lewis rats (8-10 weeks old, Charles River Laboratories, Inc., Wilmington, Mass.) were used. To generate CNV in the laser injury model, Brown-Norway rats (10-12 weeks old, Charles River Laboratories, Inc., Wilmington, Mass.) were used. Rats were housed in plastic cages in a climate controlled animal facility and were fed laboratory chow and water ad libitum. All animal experiments were conducted in accordance with the ARVO Statement for the Use of Animals in Ophthalmic and Vision Research.
(§2) Lewis rats were euthanized by overdose anesthesia and perfused with PBS (500 ml/kg body weight (BW)). Eyes were immediately enucleated and the retinal pigment epithelium (RPE)-choroid complex was obtained from the rat eyes and homogenized in extraction reagent (TRIzol Reagent; Invitrogen, Carlsbad, Calif.). […] PCR products were analyzed by electrophoresis in a 1.5% agarose gel and stained with ethidium bromide ([…]). The expected sizes of the amplified cDNA fragments of CB and GAPDH were 341 bp and 387 bp, respectively Band densities were quantified using NIH Image 1.41 software (available by ftp from zippy.nimh.nih.gov/or from the web site, rsb info.nih.gov/nih-image: developed by Wayne Rasband, National Institutes of Health, Bethesda, Md.). […]

[2] = system: vascular leakage from the CNV lesions; assay: Laser injury CNV model, fluorescein angiography grading of leakage; format: in vivo, Brown-Norway rats; details: rats
Description: as §2, with “Calif.). As a control, the retinal tissues were separately obtained and processed. Total RNA was prepared according to the manufacturer's protocol, and equal amounts ([…]) of total RNA were reverse transcribed with a First-Strand cDNA synthesis kit (GE Healthcare, Buckinghamshire, UK) at 37° C. for 1 hour in a 15 μl reaction volume.” for “Calif.).”
Seven days after laser injury, vascular leakage from the CNV lesions was assessed using fluorescein angiography (FA), as described previously (Zambarakji et al. (2001) IOVS 42: 1553-60). […]

ICAM-1 = assay: ELISA of RPE-choroid complex after laser injury: ICAM-1; format: in vivo, rat; details: laser-treated animals, 3 days after laser injury; 0.3 mg/kg BW daily i.p.
Description: as §1
The RPE-choroid complex was carefully isolated from eyes 3 days after photocoagulation and placed in 300 μl of lysis buffer supplemented with protease inhibitors and sonicated. The lysate was centrifuged at 15,000 rpm for 15 minutes at 4° C. and the levels of TNF-α, monocyte chemotactic protein (MCP)-1, and intercellular adhesion molecule (ICAM)-1 were determined with rat TNF-α (BI) bioscience), MCP-1 (BD bioscience) and ICAM-1 (R&D Systems, Minneapolis, Minn.) enzyme-linked immunosorbent assay (ELISA) kits according to the manufacturers' protocols. Total protein concentration was determined using a Bio-Rad Protein Assay Kit (Bio-Rad Laboratories Hercules, Calif.) and dilutions of bovine serum albumin (Bio-Rad Laboratories) as standards.

CC(=O)Nc1nc(CCc2ccc(NC(=N)NN)cc2)c(Cc2ccc(S(C)(=O)=O)cc2)s1 [Compound II]
reduction of number of accumulated macrophages ([1]; 3 days after laser injury, 0.3 mg/kg BW daily i.p., n=4, p<0.05): 41%
effect on accumulation of macrophages in the CNV lesions (in words) ([1]; laser injury model, rats): significantly decreased
effect on CNV / CNV size (in words) (CNV lesions): significantly decreased; also recorded: effectively suppresses CNV
effect on fluorescent angiographic leakage (in words) [2]: significantly decreased
protein level of ICAM-1 in the RPE-choroid complex (ICAM-1): 57 ± 2 ng/mg
